Data: patent publication EP2913057B1, “Cancer peptide therapeutics” (Indiana University Research and Technology Corporation, priority 2008, dated 2010)
“Also recorded” adds a separate entry of the source. Residues, ends and D or L forms follow the SMILES beside them.

Legend:
[1] = tested on: MCF 7 (breast cancer); experiment: Cytotoxic effect in malignant breast cells, cell death by flow cytometry; type: cell-based; parameters: dose or concentration left out as unconfirmed; conditions: 48 hours
Method: The R9-caPeptide was evaluated for cytotoxic effects in non-malignant (MCF 10A) and malignant (MCF 7) breast cells (Table 6). The cells were treated with 50 mM R9-caPeptide for 48 hours and the extent of cell death was evaluated by flow cytometry. […] The significant level of cytotoxicity in breast cancer cells is likely due to enhanced binding interaction of caPeptide with specific DNA repair proteins in these cells, as indicated for example by the observed preferential binding of caPCNA for XPG protein, leading to an inhibition of DNA repair in these cells, and ultimately cell death.

[2] = tested on: U937 cells; experiment: Cytotoxicity (apoptosis / cell death) of R9-linked caPCNA peptides by flow cytometry; type: cell-based; conditions: 24 hours; for % cancer cell death: 30mM of peptide, flow cytometry
Method: First, it was tested whether or not the R9 sequence alone had any cytotoxic effect in U937 cells. The U937 cells were treated with up to 100mM of the R9 sequence for 24 hours.
Once it was established that the R9 sequence promoted cellular uptake of the peptide, increasing amounts of R9-caPep were added to U937 cells to determine if the peptide's uptake would have any cytotoxic effect.
To verify that the cytotoxicity of the R9-caPep was due to the PCNA peptide sequence itself, a scrambled peptide using the same eight amino acids, R9-Scrambled, was prepared (Table 3).
The cancer associated epitope of PCNA is also part of the flexible IDCL region of PCNA. This region of PCNA is considered to have a disordered structure. Disordered regions in proteins are usually associated with protein-to-protein interaction sites. […] To determine which amino acids in the R9-caPep sequence are necessary for binding of the peptide to these proteins, peptide constructs were generated that mutated each aminoacid individually to an alanine (Table 3). Each alanine mutant peptide of caPCNA was used to treat U937 cells for 24 hours. An amino acid that is important to protein binding would presumably show decreased cell cytotoxicity when it is substituted with an alanine. Those amino acids which are not critical for binding could be anticipated to show a cytotoxic level similar to that of the unsubstituted peptide. For a comparison of the potential cytotoxic effect of each of the alanine substituted R9-linked caPeptides, U937 cells were treated with 30mM of peptide. […] It was observed that peptides containing an alanine substituted at position aa126 or aa133 show little cytotoxic activity and therefore were likely important for the peptide's activity.

[3] = tested on: U937 cells; experiment: cells; conditions: Homo sapiens, U-937, read-out: cell death

| Compound | % cancer cell death [2] | further results |
| --- | --- | --- |
| CC[C@H](C)[C@H](NC(=O)CNC(=O)[C@H](CC(C)C)NC(=O)[C@H](CS)NC(=O)[C@H](CS)NC(=O)[C@@H](CCCNC(=N)N)NC(=O)[C@@H](CCCNC(=N)N)NC(=O)[C@@H](CCCNC(=N)N)NC(=O)[C@@H](CCCNC(=N)N)NC(=O)[C@@H](CCCNC(=N)N)NC(=O)[C@@H](CCCNC(=N)N)NC(=O)[C@@H](CCCNC(=N)N)NC(=O)[C@@H](CCCNC(=N)N)NC(=O)[C@H](N)CCCNC(=N)N)C(=O)N1CCC[C@H]1C(=O)N[C@@H](CCC(=O)O)C(=O)N[C@@H](CCC(N)=O)C(=O)N[C@@H](CCC(=O)O)C(=O)N[C@@H](Cc1ccc(O)cc1)C(=O)O [R9-caPep] | – | cytotoxicity for malignant breast cells (MCF7) relative to non-malignant breast cells (MCF10A) [1]: approximately five times more cytotoxic |
| CC[C@H](C)[C@H](NC(=O)CNC(=O)[C@@H](N)CC(C)C)C(=O)N1CCC[C@H]1C(=O)N[C@@H](CCC(=O)O)C(=O)N[C@@H](CCC(N)=O)C(=O)N[C@@H](CCC(=O)O)C(=O)N[C@@H](Cc1ccc(O)cc1)C(=O)O [caPeptide] (H-LGIPEQEY-OH) | – | cytotoxic activity (apoptosis) ([2]; up to 200mM of caPeptide): did not have any cytotoxic activity; also recorded: no increase in apoptosis was detected |
| COc1cccc2c1C(=O)c1c(O)c3c(c(O)c1C2=O)C[C@@](O)(C(=O)CO)C[C@@H]3O[C@H]1C[C@H](N)[C@H](O)[C@H](C)O1 [doxorubicin] | – | cytotoxicity at 0.1 µM [3]: 30% |
| RRRRRRRRR [R9, reference compound] | – | cytotoxic effect (apoptosis) ([2]; up to 100mM of the R9 sequence): did not promote apoptosis; also recorded: did not cause an increase apoptosis |
| RRRRRRRRRCCAGIPEQEY [A1-sub. peptide, R9-linked caPCNA peptide, alanine at aa126] | 8±9% | – |
| RRRRRRRRRCCLAIPEQEY [A2-sub. peptide, R9-linked caPCNA peptide, alanine at aa127] | 47±13% | – |
| RRRRRRRRRCCLGAPEQEY [A3-sub. peptide, R9-linked caPCNA peptide, alanine at aa128] | 21±12% | – |
| RRRRRRRRRCCLGIAEQEY [A4-sub. peptide, R9-linked caPCNA peptide, alanine at aa129] | 80±7% | – |
| RRRRRRRRRCCLGIPAQEY [A5-sub. peptide, R9-linked caPCNA peptide, alanine at aa130] | 45±14% | – |
| RRRRRRRRRCCLGIPEAEY [A6-sub. peptide, R9-linked caPCNA peptide, alanine at aa131] | 93±7% | – |
| RRRRRRRRRCCLGIPEQAY [A7-sub. peptide, R9-linked caPCNA peptide, alanine at aa132] | 88±4% | – |
| RRRRRRRRRCCLGIPEQEA [A8-sub. peptide, R9-linked caPCNA peptide, alanine at aa133] | 7±6% | – |
